In US20250262170A1, “COMBINATIONS OF BETA 2-ADRENERGIC RECEPTOR AGONISTS AND BETA 3-ADRENERGIC RECEPTOR AGONISTS, AND MEDICAL USES THEREOF” (ATROGI AB, priority 2022, published 2025):

Target: T1, human β3-adrenergic receptor (Homo sapiens, UniProt P13945)
T1 construct: expressed in transfected cells
Assay: cAMP levels in CHO-K1 cells expressing the human β3-adrenergic receptor
Assay type: cell-based
Conditions: 10 μM, 15 min
Protocol: CHO-K1 cells stably expressing the human β3-adrenergic receptors were serum-starved overnight and stimulated with an agonist, final concentration 1×10^−5 M, for 15 min in stimulation buffer (HBSS supplemented with 1% BSA, 5 mM HEPES and 1 mM IBMX, pH 7.4) The medium was then aspirated and to end the reaction, 100 μL of 95% EtOH was added to each well of the 24-well plate and cells were kept at −20° C. overnight. The next day EtOH was allowed to evaporate and 250 μL of lysis buffer (1% BSA, 5 mM HEPES and 0.3% Tween-20, pH 7.4) was added to each well. The plate was kept at −80° C. for 30 min and thawed in room temperature. Intracellular cAMP levels were detected using an alpha screen cAMP kit (6760635D from Perkin Elmer). The activity for each compound is compared to that of isoproterenol.

T1 sequence (P13945 whole entry): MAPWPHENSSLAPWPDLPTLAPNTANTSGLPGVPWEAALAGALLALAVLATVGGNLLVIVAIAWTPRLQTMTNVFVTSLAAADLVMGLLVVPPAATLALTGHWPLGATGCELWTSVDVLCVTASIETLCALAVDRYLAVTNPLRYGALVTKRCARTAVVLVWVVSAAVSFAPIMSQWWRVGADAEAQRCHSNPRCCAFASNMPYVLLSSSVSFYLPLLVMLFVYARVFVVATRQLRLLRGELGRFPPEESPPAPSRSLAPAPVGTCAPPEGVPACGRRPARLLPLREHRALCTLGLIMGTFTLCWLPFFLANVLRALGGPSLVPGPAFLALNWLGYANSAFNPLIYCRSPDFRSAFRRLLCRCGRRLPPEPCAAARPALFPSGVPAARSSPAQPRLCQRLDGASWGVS

`CC(C)(C[C@H]1CC[C@H](NS(C)(=O)=O)CC1)NC[C@H](O)c1cccc(F)c1` [Compound 45, N-((trans)-4-(2-(((R)-2-(3-fluorophenyl)-2-hydroxy-ethyl)amino)-2-methyl-propyl)cyclohexyl)methane-sulfonamide] was tested. Which “Activity (intracellular cAMP compared to that of isoproterenol)” value did it give?
The value was “++ (activity of more than 75% of that of isoproterenol at 10 μM)”.

Same assay, conditions: CHO-K1, 0.25 h, 15 min, read-out: Activity (intracellular cAMP compared to that of isoproterenol)

How did the Emax at 10 µM turn out when `CCOCC12CCC([C@H](O)c3cncc(F)c3)(CC1)N2` [Compound 38, (R)-(4-(ethoxymethyl)-7-azabicyclo[2.2.1]heptan-1-yl)(5-fluoropyridin-3-yl) methanol] was run?
Its Emax at 10 µM is 50 to 75%.

How did the Emax at 10 µM turn out when `CO[C@H]1CC[C@H](CC[C@@H]2CC[C@H]([C@H](O)c3cccc(F)c3)N2)CC1` [Compound 39, (R)-(3-fluorophenyl)((2R,5R)-5-(2-((tranbs)-4-methoxy-cyclohexyl)ethyl)pyrrolidin-2-yl)methanol] was run?
The Emax at 10 µM was over 75%.

Which Emax at 10 µM does the source give for `CC(C)(C[C@H]1CC[C@H](C#N)CC1)NC[C@H](O)c1cccc(F)c1` [Compound 40, (trans)-4-(2-(((R)-2-(3-fluorophenyl)-2-hydroxy-ethyl)amino)-2-methyl-propyl)cyclohexane-1-carbonitrile] here?
Its Emax at 10 µM is 50 to 75%.

How did the Emax at 10 µM turn out when `CCOC(=O)CO[C@H]1CC[C@H](C(C)(C)NC[C@H](O)c2cccc(F)c2)CC1` [Compound 41, ethyl 2-(((1R,4r)-4-(2-(((R)-2-(3-fluorophenyl)-2-hydroxyethyl)amino)propan-2-yl)cyclohexyl)oxy)acetate] was run?
Its Emax at 10 µM is over 75%.

Which Emax at 10 µM does the source give for `O[C@H](c1cccc(F)c1)[C@H]1CC[C@@H](Cc2ccc(Cl)cc2)N1` [Compound 42, (R)-((2R,5S)-5-(4-chloro-benzyl)pyrrolidin-2-yl)(3-fluorophenyl)methanol] here?
Its Emax at 10 µM is over 75%.

For `O[C@H](c1cccc(F)c1)C12CCC(Cc3ccccc3)(CC1)N2` [Compound 43, (R)-(4-benzyl-7-azabicyclo-[2.2.1]heptan-1-yl)(3-fluoro-phenyl)methanol], which Emax at 10 µM is on record?
The Emax at 10 µM was 50 to 75%.

How did the Emax at 10 µM turn out when `CC(C)(NC[C@H](O)c1cccc(F)c1)[C@H]1CC[C@H](NC(=O)c2ccccc2)CC1` [Compound 44, N-((trans)-4-(2-(((R)-2-(3-fluorophenyl)-2-hydroxy-ethyl)amino)propan-2-yl)-cyclohexyl)benzamide] was run?
Its Emax at 10 µM is over 75%.

`CC(C)(C[C@H]1CC[C@H](NS(C)(=O)=O)CC1)NC[C@H](O)c1cncc(F)c1` [Compound 46, N-((trans)-4-(2-(((R)-2-(5-fluoropyridin-3-yl)-2-hydroxyethyl)amino)-2-methylpropyl)cyclohexyl) methanesulfonamide] was tested. Which Emax at 10 µM did it give?
Its Emax at 10 µM is over 75%.

How did the Emax at 10 µM turn out when `COC(=O)[C@H]1CC[C@H](CCC(C)(C)NC[C@H](O)c2cncc(F)c2)CC1` [Compound 47, methyl (trans)-4-(3-(((R)-2-(5-fluoropyridin-3-yl)-2-hydroxyethyl)amino)-3-methylbutyl)cyclohexane-1-carboxylate] was run?
The Emax at 10 µM was 50 to 75%.

`CO[C@H]1CC[C@H](C[C@H]2CC[C@H]([C@H](O)c3ccccc3F)N2)CC1` [Compound 48, (R)-(2-fluorophenyl)((2R,5R)-5-(((trans)-4-methoxycyclo-hexyl)methyl)pyrrolidin-2-yl)-methanol] was tested. Which Emax at 10 µM did it give?
Its Emax at 10 µM is 50 to 75%.

For `CO[C@H]1CC[C@H](C[C@@H]2CC[C@H]([C@H](O)c3ccccc3F)N2)CC1` [Compound 49, (R)-(2-fluorophenyl)((2R,5S)-5-(((trans)-4-methoxycyclo-hexyl)methyl)pyrrolidin-2-yl)-methanol], which Emax at 10 µM is on record?
The Emax at 10 µM was 50 to 75%.

`CC(C)(CC[C@H]1CC[C@@H](O)CC1)NC[C@H](O)c1ccccc1F` [Compound 50, (cis)-4-(3-(((R)-2-(2-fluoro-phenyl)-2-hydroxyethyl)-amino)-3-methylbutyl)-cyclohexan-1-ol] was tested. Which Emax at 10 µM did it give?
The Emax at 10 µM was 50 to 75%.

Which Emax at 10 µM does the source give for `CC(C)(CC[C@H]1CC[C@H](O)CC1)NC[C@H](O)c1ccccc1F` [Compound 51, (trans)-4-(3-(((R)-2-(2-fluorophenyl)-2-hydroxy-ethyl)amino)-3-methylbutyl)-cyclohexan-1-ol] here?
Its Emax at 10 µM is over 75%.

Which Emax at 10 µM does the source give for `CC(C)(C[C@H]1CC[C@H](O)CC1)NC[C@H](O)c1cccc(F)c1` [Compound 52, (trans)-4-(2-(((R)-2-(3-fluorophenyl)-2-hydroxy-ethyl)amino)-2-methyl-propyl)cyclohexan-1-ol] here?
Its Emax at 10 µM is over 75%.

How did the Emax at 10 µM turn out when `CO[C@H]1CC[C@@H](CC(C)(C)NC[C@H](O)c2cccc(F)c2)CC1` [Compound 53, (R)-1-(3-fluorophenyl)-2-((1-((cis)-4-methoxycyclohexyl)-2-methylpropan-2-yl)-amino)ethan-1-ol] was run?
Its Emax at 10 µM is 50 to 75%.

How did the Emax at 10 µM turn out when `CO[C@H]1CC[C@H](C(C)(C)NC[C@H](O)c2cccc(F)c2)CC1` [Compound 54, (R)-1-(3-fluorophenyl)-2-((2-((trans)-4-methoxycyclo-hexyl)propan-2-yl)amino)-ethan-1-ol] was run?
Its Emax at 10 µM is 50 to 75%.

`CC12CC(C1)[C@H]([C@H](O)c1cccc(F)c1)N2` [Compound 55, (R)-(3-fluorophenyl)((R)-1-methyl-2-azabicyclo[2.1.1]-hexan-3-yl)methanol] was tested. Which Emax at 10 µM did it give?
Its Emax at 10 µM is 50 to 75%.

Which Emax at 10 µM does the source give for `O[C@H](c1cccc(F)c1)[C@H]1CCC2(CCCC2)N1` [Compound 56, (R)-(3-fluorophenyl)((R)-1-azaspiro[4.4]nonan-2-yl)-methanol] here?
Its Emax at 10 µM is over 75%.

`CC(C)(C)[C@H]1CC[C@H]([C@H](O)c2cccc(F)c2)N1` [Compound 57, (R)-((2R,5R)-5-(tert-butyl)-pyrrolidin-2-yl)(3-fluoro-phenyl)methanol] was tested. Which Emax at 10 µM did it give?
Its Emax at 10 µM is 50 to 75%.

Which Emax at 10 µM does the source give for `CC1(C)CC[C@H]([C@H](O)c2cccc(Cl)c2)N1` [Compound 58, (R)-(3-chlorophenyl)((R)-5,5-dimethylpyrrolidin-2-yl)-methanol] here?
Its Emax at 10 µM is 50 to 75%.

Which Emax at 10 µM does the source give for `CC(C)(C)NC[C@H](O)c1ccc(F)c(N)c1F` [Compound 59, (R)-1-(3-amino-2,4-difluoro-phenyl)-2-(tert-butylamino)-ethan-1-ol] here?
The Emax at 10 µM was over 75%.

How did the Emax at 10 µM turn out when `CC(C)(C)NCC(O)c1ccncc1O` (centres unmarked) [Compound 60, 4-(2-(tert-butylamino)-1-hydroxyethyl)pyridin-3-ol] was run?
Its Emax at 10 µM is over 75%.

How did the Emax at 10 µM turn out when `CC(C)(C)NC[C@H](O)c1cccc(N)c1F` [Compound 61, (R)-1-(3-amino-2-fluoro-phenyl)-2-(tert-butylamino)-ethan-1-o] was run?
The Emax at 10 µM was over 75%.

With `CC1(NC[C@H](O)c2cccc(O)c2)CCC1` [Compound 62, (R)-3-(1-hydroxy-2-((1-methylcyclobutyl)amino)-ethyl)phenol] as the compound, how does the Emax at 10 µM read?
The Emax at 10 µM was over 75%.

For `CC1(NC[C@H](O)c2cccc(F)c2)CC1` [Compound 63, (R)-1-(3-fluorophenyl)-2-((1-methylcyclopropyl)amino)-ethan-1-ol], which Emax at 10 µM is on record?
Its Emax at 10 µM is 50 to 75%.

`CCCCNC[C@H](O)c1ccccc1F` [Compound 64, (R)-2-(butylamino)-1-(2-fluorophenyl)ethan-1-ol] was tested. Which Emax at 10 µM did it give?
The Emax at 10 µM was over 75%.

Which Emax at 10 µM does the source give for `CC(C)(C)NC[C@H](O)c1cccc(F)c1F` [Compound 65, (R)-2-(tert-butylamino)-1-(2,3-difluorophenyl)ethan-1-ol] here?
The Emax at 10 µM was over 75%.

How did the Emax at 10 µM turn out when `CCC[C@@H](C)NC[C@H](O)c1cccc(F)c1` [Compound 66, (R)-1-(3-fluorophenyl)-2-(((R)-pentan-2-yl)amino)-ethan-1-ol] was run?
Its Emax at 10 µM is over 75%.

Which Emax at 10 µM does the source give for `CCCCNCC(O)c1ccc(F)c(N)c1F` (centres unmarked) [Compound 67, 1-(3-amino-2,4-difluoro-phenyl)-2-(butylamino)ethan-1-ol] here?
Its Emax at 10 µM is 50 to 75%.

`CCC[C@H](C)NC[C@H](O)c1cccc(O)c1` [Compound 68, 3-((R)-1-hydroxy-2-(((S)-pentan-2-yl)amino)ethyl)-phenol] was tested. Which Emax at 10 µM did it give?
Its Emax at 10 µM is over 75%.

`CCC[C@@H](C)NC[C@H](O)c1cccc(O)c1` [Compound 69, 3-((R)-1-hydroxy-2-(((R)-pentan-2-yl)amino)ethyl)-phenol] was tested. Which Emax at 10 µM did it give?
Its Emax at 10 µM is over 75%.

For `CCCCNC[C@H](O)c1ccc(O)cc1` [Compound 70, (R)-4-(2-(butylamino)-1-hydroxyethyl)phenol], which Emax at 10 µM is on record?
Its Emax at 10 µM is 50 to 75%.

Target: T2, β2-adrenergic receptor (Rattus norvegicus, UniProt P10608)
T2 construct: endogenous in cells; host or cells: L6 myotubes differentiated from L6 myoblasts
T2 sequence (P10608 whole entry): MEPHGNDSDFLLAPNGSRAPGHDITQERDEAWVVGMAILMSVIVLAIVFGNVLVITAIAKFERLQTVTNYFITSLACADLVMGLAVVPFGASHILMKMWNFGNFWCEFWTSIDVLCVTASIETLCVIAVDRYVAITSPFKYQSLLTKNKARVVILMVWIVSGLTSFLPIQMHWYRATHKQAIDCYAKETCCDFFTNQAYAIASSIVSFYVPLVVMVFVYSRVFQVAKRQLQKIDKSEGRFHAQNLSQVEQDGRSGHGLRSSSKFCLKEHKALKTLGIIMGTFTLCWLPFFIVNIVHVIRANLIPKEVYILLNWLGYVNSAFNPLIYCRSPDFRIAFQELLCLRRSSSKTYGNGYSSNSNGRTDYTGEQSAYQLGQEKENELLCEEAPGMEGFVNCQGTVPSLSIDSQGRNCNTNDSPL
Assay: Glucose uptake in L6-myotubes in the presence of the selective β2-adrenergic receptor antagonist ICI-118551
Assay type: cell-based
Conditions: 3H-2-deoxyglucose, increasing ICI-118551
Protocol: L6-myoblasts were grown in Dulbecco's Modified Eagle's Medium (DMEM) containing 1 g/L glucose supplemented with 10% fetal bovine serum (FBS), 2 mM L-glutamine, 50 U/mL penicillin, […] streptomycin and 10 mM HEPES. Cells were plated at 1×10^5 cells per mL in 24-well plates. After reaching 90% confluence the cells were grown in medium containing 2% FBS for 7 days where upon cells differentiated into myotubes.
The differentiated L6-myotubes were serum-starved overnight in medium containing 0.5% fatty-acid free BSA and stimulated with Compounds A and B at a final concentration of 1×10^−5 M in the presence of the selective β2-adrenergic receptor antagonist ICI-118551. After 1 h 40 min the cells were washed with warm, glucose free medium twice and another portion of agonist was added to the glucose free medium. After another 20 min of incubation the cells were exposed to 50 nM ^3H-2-deoxyglucose for 10 min before washed in ice cold glucose free medium three times and lysed in 400 μl/well 0.2 M NaOH for 1 h at 60° C. The cell lysate was mixed with 4 ml scintillation buffer (Emulsifier Safe, Perkin Elmer) and the radioactivity was detected in a […] (Tri-Carb 4810TR, Perkin Elmer).

For `CC(C)(C)NC[C@H](O)c1cccc(F)c1` [Compound A], which “glucose uptake promoted by the agonist in the presence of ICI-118551” value is on record?
Its value is “inhibited in a dose-dependent manner”.

Which “glucose uptake promoted by the agonist in the presence of ICI-118551” value does the source give for `CC(C)(C)NCC(O)c1cc(Cl)c(N)c(Cl)c1` (centres unmarked) [clenbuterol, reference compound] here?
The value was “inhibited in a dose-dependent manner”.
